Measurements as given in PubChem BioAssay (NCI).
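Values below derive from 48-hour exposures of cells grown in 96-well plates, with endpoints linearly interpolated between the two concentrations bracketing the appropriate inhibition level. Abbreviation: GI50, concentration required for 50% inhibition of growth. TGI: concentration producing complete growth inhibition.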

How the values were obtained:
Experiment in all cases: growth of human tumour cells (NCI), 48 h
SF-539 CNS = test system: SF-539 CNS
DU-145 prostate = test system: DU-145 prostate
RXF 393 renal = test system: RXF 393 renal
IGROV1 ovarian = test system: IGROV1 ovarian
EKVX NSCLC = test system: EKVX NSCLC
786-0 renal = test system: 786-0 renal
MOLT-4 leukemia = test system: MOLT-4 leukemia
HCC-2998 colon = test system: HCC-2998 colon
A549 NSCLC = test system: A549 NSCLC
SR leukemia = test system: SR leukemia
MDA-MB-231 breast = test system: MDA-MB-231 breast
MCF7 breast = test system: MCF7 breast
BT-549 breast = test system: BT-549 breast
HL-60(TB) leukemia = test system: HL-60(TB) leukemia
HOP-62 NSCLC = test system: HOP-62 NSCLC
SW-620 colon = test system: SW-620 colon
HT29 colon = test system: HT29 colon
SK-MEL-28 melanoma = test system: SK-MEL-28 melanoma
T-47D breast = test system: T-47D breast
OVCAR-8 ovarian = test system: OVCAR-8 ovarian
HOP-92 NSCLC = test system: HOP-92 NSCLC
NCI-H522 lung = test system: NCI-H522 lung
UO-31 renal = test system: UO-31 renal
KM12 colon = test system: KM12 colon
HCT-116 colon = test system: HCT-116 colon
HCT-15 colon = test system: HCT-15 colon
OVCAR-3 ovarian = test system: OVCAR-3 ovarian
NCI-H226 lung = test system: NCI-H226 lung
NCI/ADR-RES ovarian = test system: NCI/ADR-RES ovarian
RPMI-8226 leukemia = test system: RPMI-8226 leukemia
SNB-19 CNS = test system: SNB-19 CNS
K-562 leukemia = test system: K-562 leukemia
TK-10 renal = test system: TK-10 renal
COLO 205 colon = test system: COLO 205 colon
UACC-62 melanoma = test system: UACC-62 melanoma
SK-MEL-5 melanoma = test system: SK-MEL-5 melanoma
CCRF-CEM leukemia = test system: CCRF-CEM leukemia
SF-295 CNS = test system: SF-295 CNS
CAKI-1 renal = test system: CAKI-1 renal
HS 578T breast = test system: HS 578T breast
SK-OV-3 ovarian = test system: SK-OV-3 ovarian
SF-268 CNS = test system: SF-268 CNS
PC-3 prostate = test system: PC-3 prostate
A498 renal = test system: A498 renal
U251 CNS = test system: U251 CNS
OVCAR-5 ovarian = test system: OVCAR-5 ovarian
NCI-H460 lung = test system: NCI-H460 lung
OVCAR-4 ovarian = test system: OVCAR-4 ovarian
LOX IMVI melanoma = test system: LOX IMVI melanoma
UACC-257 melanoma = test system: UACC-257 melanoma
SNB-75 CNS = test system: SNB-75 CNS
SK-MEL-2 melanoma = test system: SK-MEL-2 melanoma
M14 melanoma = test system: M14 melanoma
MALME-3M melanoma = test system: MALME-3M melanoma
SN12C renal = test system: SN12C renal
ACHN renal = test system: ACHN renal
MDA-MB-435 = test system: MDA-MB-435
NCI-H23 lung = test system: NCI-H23 lung

## C=CC(=O)N1C[C@H](COc2nc(Nc3cnn(C)c3)nc3[nH]cc(Cl)c23)[C@@H](OC)C1
SF-539 CNS
  GI50: 1.28 µM
  TGI: 4.61 µM
DU-145 prostate
  GI50: 1.45 µM
  TGI: 15.4 µM
RXF 393 renal
  GI50: 0.509 µM
  TGI: 2.88 µM
IGROV1 ovarian
  GI50: 0.438 µM
  TGI: 2.79 µM
EKVX NSCLC
  GI50: 1.23 µM
  TGI: 8.55 µM
786-0 renal
  GI50: 1.96 µM
  TGI: 29.6 µM
MOLT-4 leukemia
  GI50: 2.02 µM
  TGI: 37.9 µM
HCC-2998 colon
  GI50: 5.47 µM
  TGI: 19.4 µM
A549 NSCLC
  GI50: 2.8 µM
  TGI: 14.8 µM
SR leukemia
  GI50: 0.65 µM
  TGI: > 100 µM
MDA-MB-231 breast
  GI50: 2.84 µM
  TGI: 16.1 µM
MCF7 breast
  GI50: 1.22 µM
  TGI: 13.8 µM
BT-549 breast
  GI50: 0.992 µM
  TGI: 8.34 µM
HL-60(TB) leukemia
  GI50: 3.31 µM
  TGI: 13 µM
HOP-62 NSCLC
  GI50: 4.12 µM
  TGI: 28.5 µM
SW-620 colon
  GI50: 1.15 µM
  TGI: 16.2 µM
HT29 colon
  GI50: 5.24 µM
  TGI: 48.6 µM
SK-MEL-28 melanoma
  GI50: 8.43 µM
  TGI: 25.9 µM
T-47D breast
  GI50: 2.01 µM
  TGI: 17.6 µM
OVCAR-8 ovarian
  GI50: 4.74 µM
  TGI: 24.5 µM
HOP-92 NSCLC
  GI50: 1.25 µM
  TGI: 4.87 µM
NCI-H522 lung
  GI50: 0.431 µM
  TGI: 17.6 µM
UO-31 renal
  GI50: 1.55 µM
  TGI: 11 µM
KM12 colon
  GI50: 0.342 µM
  TGI: 14 µM
HCT-116 colon
  GI50: 1.24 µM
  TGI: 14.3 µM
HCT-15 colon
  GI50: 4.74 µM
  TGI: 24.3 µM
OVCAR-3 ovarian
  GI50: 2.28 µM
  TGI: 18 µM
NCI-H226 lung
  GI50: 0.97 µM
  TGI: 21.7 µM
NCI/ADR-RES ovarian
  GI50: 18 µM
  TGI: 65.3 µM
RPMI-8226 leukemia
  GI50: 3.29 µM
  TGI: 22.7 µM
SNB-19 CNS
  GI50: 3.41 µM
  TGI: 16.2 µM
K-562 leukemia
  GI50: 4.75 µM
  TGI: > 100 µM
TK-10 renal
  GI50: 1.16 µM
  TGI: 10.6 µM
COLO 205 colon
  GI50: 2.83 µM
  TGI: 14.6 µM
UACC-62 melanoma
  GI50: 2.89 µM
  TGI: 14.3 µM
SK-MEL-5 melanoma
  GI50: 11.5 µM
  TGI: 23.6 µM
CCRF-CEM leukemia
  GI50: 0.635 µM
  TGI: > 100 µM
SF-295 CNS
  GI50: 11.6 µM
  TGI: 24.2 µM
CAKI-1 renal
  GI50: 1 µM
  TGI: 3.67 µM
HS 578T breast
  GI50: 1.01 µM
  TGI: 4.31 µM
SK-OV-3 ovarian
  GI50: 0.225 µM
  TGI: 1.2 µM
SF-268 CNS
  GI50: 0.965 µM
  TGI: 15.5 µM
PC-3 prostate
  GI50: 3.98 µM
  TGI: 55.3 µM
A498 renal
  GI50: 0.26 µM
  TGI: 1.14 µM
U251 CNS
  GI50: 0.991 µM
  TGI: 17.5 µM
OVCAR-5 ovarian
  GI50: 3.18 µM
  TGI: 48.4 µM
NCI-H460 lung
  GI50: 4.13 µM
  TGI: 18.6 µM
OVCAR-4 ovarian
  GI50: 2.15 µM
  TGI: 14.1 µM
LOX IMVI melanoma
  GI50: 0.894 µM
  TGI: 12.2 µM
UACC-257 melanoma
  GI50: 6.64 µM
  TGI: 28 µM
SNB-75 CNS
  GI50: 0.357 µM
  TGI: 2.42 µM
SK-MEL-2 melanoma
  GI50: 11.5 µM
  TGI: 25.7 µM
M14 melanoma
  GI50: 4.49 µM
  TGI: 20.3 µM
MALME-3M melanoma
  GI50: 10.9 µM
  TGI: 24.4 µM
SN12C renal
  GI50: 2.29 µM
  TGI: 15.7 µM
ACHN renal
  GI50: 0.993 µM
  TGI: 13.3 µM
MDA-MB-435
  GI50: 3 µM
  TGI: 16.4 µM
NCI-H23 lung
  GI50: 4.1 µM
  TGI: 18.9 µM
